One test has as its target T1, HDAC6 (Homo sapiens, UniProt Q9UBN7).
T1 sequence (Q9UBN7 1-1215): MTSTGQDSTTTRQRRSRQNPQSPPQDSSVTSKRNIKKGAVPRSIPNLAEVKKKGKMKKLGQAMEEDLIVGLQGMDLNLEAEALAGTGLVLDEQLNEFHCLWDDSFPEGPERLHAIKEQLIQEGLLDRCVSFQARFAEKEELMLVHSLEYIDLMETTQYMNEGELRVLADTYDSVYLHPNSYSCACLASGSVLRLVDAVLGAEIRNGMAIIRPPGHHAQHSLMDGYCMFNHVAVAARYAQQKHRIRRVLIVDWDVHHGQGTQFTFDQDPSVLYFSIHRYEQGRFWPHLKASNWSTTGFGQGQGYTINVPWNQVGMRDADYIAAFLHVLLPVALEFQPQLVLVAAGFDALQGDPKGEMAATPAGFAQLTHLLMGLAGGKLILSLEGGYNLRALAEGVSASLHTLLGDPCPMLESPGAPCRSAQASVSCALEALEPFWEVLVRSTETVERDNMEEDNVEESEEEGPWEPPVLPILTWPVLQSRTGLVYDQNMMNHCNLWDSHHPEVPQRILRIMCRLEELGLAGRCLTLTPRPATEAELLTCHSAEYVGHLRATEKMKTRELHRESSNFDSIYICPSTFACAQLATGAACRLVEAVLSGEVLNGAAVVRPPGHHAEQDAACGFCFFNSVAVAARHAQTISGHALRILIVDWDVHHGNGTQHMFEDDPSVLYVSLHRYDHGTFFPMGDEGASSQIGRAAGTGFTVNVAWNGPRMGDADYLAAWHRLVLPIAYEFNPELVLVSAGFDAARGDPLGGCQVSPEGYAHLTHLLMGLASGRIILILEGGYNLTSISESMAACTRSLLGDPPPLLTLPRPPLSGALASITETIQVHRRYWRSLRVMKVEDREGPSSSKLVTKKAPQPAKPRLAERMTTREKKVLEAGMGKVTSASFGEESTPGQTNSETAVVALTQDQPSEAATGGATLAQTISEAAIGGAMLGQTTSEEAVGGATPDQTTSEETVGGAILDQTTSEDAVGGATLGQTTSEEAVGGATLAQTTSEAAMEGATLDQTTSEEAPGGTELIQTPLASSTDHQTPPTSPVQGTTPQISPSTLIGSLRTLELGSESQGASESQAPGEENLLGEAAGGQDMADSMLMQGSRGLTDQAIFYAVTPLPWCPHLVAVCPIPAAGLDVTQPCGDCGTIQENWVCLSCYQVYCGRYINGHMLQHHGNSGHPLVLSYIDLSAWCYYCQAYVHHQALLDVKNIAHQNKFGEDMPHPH
The experiment in a line: HDAC enzyme assay, recombinant HDAC6.

A further test deals with HDAC1 (Homo sapiens, UniProt Q13547). The experiment in a line: HDAC enzyme assay, recombinant HDAC1.
For test [1], the target named is HDAC (HeLa nuclear extracts). The experiment in a line: HDAC enzyme assay, HeLa nuclear extracts. To be noted: read-out: In Vitro Enzymatic IC50 HDAC (HeLa).
A further test addresses T2, PI3Kα (Homo sapiens, UniProt P42336).
T2 construct: purchased Invitrogen, or BPS Bioscience Inc., or SignalChem PV4788 / 40620 / P27-18H
The experiment in a line: Kinase enzyme assay (ADP-Glo), PI3Kα. The conditions noted are these: read-out: In Vitro Enzymatic IC50 PI3Kα. The class given is biochemical. A general note: In ADP-Glo the light output rises with the ADP produced.

The next test deals with COLO 205. The test can be described thus: cells. To be noted: Homo sapiens, COLO 205, 72 h, read-out: In Vitro Cellular IC50 COLO 205.
In another test the test system is MV-4-11. The test can be described thus: cells. The conditions noted are these: Homo sapiens, MV4-11, 72 h, read-out: In Vitro Cellular IC50 MV-4-11.
For the next test, the system named is MCF7. The experiment in a line: Anti-proliferative assay (cellular IC50), MCF7. To be noted: Homo sapiens, MCF7, 72 h, read-out: In Vitro Cellular IC50 MCF7.
The test system of a further test is PC-3. The experiment in a line: Anti-proliferative assay (cellular IC50), PC-3. To be noted: Homo sapiens, PC-3, 72 h, read-out: In Vitro Cellular IC50 PC-3.
The next test relates to K-562. The test can be described thus: Anti-proliferative assay (cellular IC50), K-562. To be noted: Homo sapiens, K562, 72 h, read-out: In Vitro Cellular IC50 K-562.
A further test has as its system MOLT-4. The test can be described thus: Anti-proliferative assay (cellular IC50), MOLT-4. To be noted: Homo sapiens, MOLT-4, 72 h, read-out: In Vitro Cellular IC50 MOLT-4.
The subject of another test is HCT 116. The experiment in a line: cells. To be noted: Homo sapiens, HCT-116, 72 h, read-out: In Vitro Cellular IC50 HCT 116.

pIC50: −log10 of the molar value.

Sequence of HDAC1 (Q13547 whole entry): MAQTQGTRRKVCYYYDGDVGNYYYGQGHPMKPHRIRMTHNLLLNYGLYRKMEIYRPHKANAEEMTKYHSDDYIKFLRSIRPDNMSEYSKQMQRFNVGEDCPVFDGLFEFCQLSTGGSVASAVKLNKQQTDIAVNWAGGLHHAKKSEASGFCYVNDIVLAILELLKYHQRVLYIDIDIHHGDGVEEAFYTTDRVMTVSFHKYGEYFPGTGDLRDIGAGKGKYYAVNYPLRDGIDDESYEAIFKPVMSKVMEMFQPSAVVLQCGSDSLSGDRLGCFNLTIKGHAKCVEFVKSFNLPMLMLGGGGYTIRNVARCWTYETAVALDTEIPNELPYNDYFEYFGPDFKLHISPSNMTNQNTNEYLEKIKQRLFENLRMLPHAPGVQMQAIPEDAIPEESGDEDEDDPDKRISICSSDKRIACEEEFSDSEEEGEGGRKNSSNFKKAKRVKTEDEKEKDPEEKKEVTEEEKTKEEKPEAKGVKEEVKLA
T2 sequence (P42336 whole entry): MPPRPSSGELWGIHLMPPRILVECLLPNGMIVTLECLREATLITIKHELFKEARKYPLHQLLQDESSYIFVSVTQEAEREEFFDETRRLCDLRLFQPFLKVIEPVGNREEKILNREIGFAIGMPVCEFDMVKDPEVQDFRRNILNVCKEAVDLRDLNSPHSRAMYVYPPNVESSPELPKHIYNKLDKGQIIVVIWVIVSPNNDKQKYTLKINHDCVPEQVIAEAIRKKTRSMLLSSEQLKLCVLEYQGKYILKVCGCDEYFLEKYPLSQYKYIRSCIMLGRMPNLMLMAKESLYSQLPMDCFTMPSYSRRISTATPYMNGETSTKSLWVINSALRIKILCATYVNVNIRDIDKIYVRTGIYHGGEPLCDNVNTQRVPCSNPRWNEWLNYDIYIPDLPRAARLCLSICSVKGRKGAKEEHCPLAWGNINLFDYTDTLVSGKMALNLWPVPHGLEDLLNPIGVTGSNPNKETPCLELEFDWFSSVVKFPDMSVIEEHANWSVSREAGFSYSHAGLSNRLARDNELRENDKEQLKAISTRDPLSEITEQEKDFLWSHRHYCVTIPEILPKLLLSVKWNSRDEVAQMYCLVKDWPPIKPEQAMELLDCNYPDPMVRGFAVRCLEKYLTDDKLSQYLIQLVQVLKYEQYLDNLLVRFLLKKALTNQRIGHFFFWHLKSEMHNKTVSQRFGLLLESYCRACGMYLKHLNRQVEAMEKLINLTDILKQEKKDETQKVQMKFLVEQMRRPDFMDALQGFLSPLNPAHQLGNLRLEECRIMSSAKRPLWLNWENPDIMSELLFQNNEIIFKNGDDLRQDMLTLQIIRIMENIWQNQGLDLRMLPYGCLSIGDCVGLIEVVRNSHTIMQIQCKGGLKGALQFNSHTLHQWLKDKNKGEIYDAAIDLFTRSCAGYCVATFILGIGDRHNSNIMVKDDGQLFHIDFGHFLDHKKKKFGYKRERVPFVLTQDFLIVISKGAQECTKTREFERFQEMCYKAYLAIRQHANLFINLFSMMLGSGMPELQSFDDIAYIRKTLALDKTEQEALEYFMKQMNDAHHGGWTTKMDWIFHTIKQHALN
T2 sequence (P27986 whole entry partner): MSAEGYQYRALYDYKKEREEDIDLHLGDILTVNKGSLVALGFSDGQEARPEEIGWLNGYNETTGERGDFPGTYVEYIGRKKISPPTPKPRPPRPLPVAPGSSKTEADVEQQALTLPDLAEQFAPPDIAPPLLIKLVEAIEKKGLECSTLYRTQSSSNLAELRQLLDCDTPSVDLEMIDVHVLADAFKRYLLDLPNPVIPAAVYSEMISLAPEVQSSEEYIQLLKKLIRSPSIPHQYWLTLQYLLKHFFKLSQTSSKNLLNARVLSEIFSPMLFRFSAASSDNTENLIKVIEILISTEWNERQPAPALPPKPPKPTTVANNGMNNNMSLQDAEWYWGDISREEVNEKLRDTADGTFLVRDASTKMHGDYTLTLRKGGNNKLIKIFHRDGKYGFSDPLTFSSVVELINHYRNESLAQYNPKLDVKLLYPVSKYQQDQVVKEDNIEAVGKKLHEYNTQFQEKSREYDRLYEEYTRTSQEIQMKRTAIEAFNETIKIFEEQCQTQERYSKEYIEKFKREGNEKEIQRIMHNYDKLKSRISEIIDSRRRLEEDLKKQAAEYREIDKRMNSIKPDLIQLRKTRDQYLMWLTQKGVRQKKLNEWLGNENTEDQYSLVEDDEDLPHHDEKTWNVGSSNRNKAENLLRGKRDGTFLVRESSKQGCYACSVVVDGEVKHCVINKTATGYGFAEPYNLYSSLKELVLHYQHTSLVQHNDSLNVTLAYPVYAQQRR
Description for COLO 205: (§1) Cells were cultivated at 37° C., 5% CO2 in media containing 10% FBS and 2 mM glutamine Cells were routinely monitored with MycoAlert™ PLUS Mycoplasma Detection Kit (Lonza Walkersville, Inc.) to make sure they were mycoplasma free. Antibiotics (100 U/mL of penicillin and 100 μg/mL of streptomycin) were only added to the media used for compound dilution and cells in 96-well assay plates.
(§2) For a typical screening experiment, cells (100 μL/well) are inoculated into 96 well microtiter plates at plating densities ranging from 2,000 to 30,000 cells/well depending on the doubling time of individual cell lines and assay linearity. […] Suspension cells are treated with test compounds immediately after cell inoculation.
(§3) Test compounds are serially diluted (3-fold or 4-fold, 8-concentration) using the same media and added to the plates (15 to 25 μL/well). After 72 h of cultivation, the plates are assayed for cell cytotoxicity/viability by using the following two methods.
(§4) Cells in plates are fixed with cold trichloroacetic acid (TCA) (50% w/v in DI water, 1/4 volume of the medium in each well), and incubated at 4° C. for 1 h (adherent cells) or 2 h (suspension cells). The plates are washed 5 times (tap water×3, DI water×2) and air-dried. SRB solution 0.4% (w/v) in 1% acetic acid is added to each well (60 μL/well) and the plates are incubated at room temperature for 30 min, then washed with 1% acetic acid solution 4 times, and air-dried.
(§5) The plates are added CellTiter-Glo® Reagent (95 μL/well) and read the luminescence on a BioTek H4 reader per manufacture's protocol.
(§6) The raw data are processed using BioTek's Software Gen5 (v2.03.01) to generate inhibitory IC50 values.
Description for HCT 116: as §1, §2, §3, §4, §5, §6
Description for MCF7: as §1, §2, §3, §4, §5, §6
Description for MOLT-4: as §1, §2, §3, §4, §5, §6
Description for MV-4-11: as §1, §2, §3, §4, §5, §6

Usually pIC50 stands for the IC50 on a negative log10 scale, so that one unit is a factor of ten. `Nc1ncc(-c2nc(N3CCOCC3)nc3c2ncn3CCCCCCC(=O)NO)cn1` [compound 3]: the pIC50 on HDAC6 is 7.00 to 8.00.
As for `CC(C)n1cnc2c(-c3cccc(COCCCCC(=O)NO)c3)nc(N3CCOCC3)nc21` [compound 23, N-hydroxy-5-((3-(9-isopropyl-2-morpholino-9H-purin-6-yl)benzyl)oxy)pentanamide], the pIC50 (on HDAC1; in [1]) was 7.00 to 8.00 throughout.
With `CC(C)n1cnc2c(-c3cccc(OCC(=O)NO)c3)nc(N3CCOCC3)nc21` [compound 24, N-hydroxy-2-(3-(9-isopropyl-2-morpholino-9H-purin-6-yl)phenoxy)acetamide], the pIC50 on PI3Kα and on HDAC1 was 5.00 to 6.00 each time.
Take `CCN(CC)c1nc2c(-c3cnc(N)nc3)nc(N3CCOCC3)nc2n1CCCC(=O)NO` [compound 28, 4-(6-(2-aminopyrimidin-5-yl)-8-(diethylamino)-2-morpholino-9H-purin-9-yl)-N-hydroxybutanamide]: the pIC50 (on HDAC1; in test [1]) was 5.00 to 6.00 throughout.
For `CCN(CC)c1nc(-c2cccc(OCCCC(=O)NO)c2)c2ncn(C(C)C)c2n1` [compound 30, 4-(3-(2-(diethylamino)-9-isopropyl-9H-purin-6-yl)phenoxy)-N-hydroxybutanamide], the pIC50 was 5.00 to 5.70 in the test with COLO 205; over 6.30 in the test with MV-4-11; 5.00 to 6.00 at HDAC1; 6.00 to 7.00 in test [1]; 5.00 to 5.70 in the test with MCF7; over 6.30 with PC-3. Besides, the pIC50 with K-562 was 5.00 to 5.70.
Consider `Nc1ncc(-c2nc(N3CCOCC3)c3ncn(CCCCCCC(=O)NO)c3n2)cn1` [compound 41, 7-(2-(2-aminopyrimidin-5-yl)-6-morpholino-9H-purin-9-yl)-N-hydroxyheptanamide], for which the pIC50 on HDAC6 is over 8.00.
The same measure, in the same setting: the figure for `CC(=O)Nc1cccc(-c2nc(N3CCOCC3)c3ncn(CCCCCCC(=O)NO)c3n2)c1` [compound 48, 7-(2-(3-acetamidophenyl)-6-morpholino-9H-purin-9-yl)-N-hydroxyheptanamide] is over 8.00.
For the compound `NC(=O)c1cccc(-c2nc(N3CCOCC3)c3ncn(CCCCCCC(=O)NO)c3n2)c1` [compound 49, 3-(9-(7-(hydroxyamino)-7-oxoheptyl)-6-morpholino-9H-purin-2-yl)benzamide], the negative logarithm of the IC50 (pIC50) at HDAC6 was over 8.00.
On the same count and under the same terms, the figure for `O=C(CCCCCCn1cnc2c(N3CCOCC3)nc(-c3cn[nH]c3)nc21)NO` [compound 51, N-hydroxy-7-(6-morpholino-2-(1H-pyrazol-4-yl)-9H-purin-9-yl)heptanamide] is over 8.00; for `COc1ccc(-c2nc(N3CCOCC3)c3ncn(CCCCCCC(=O)NO)c3n2)cn1` [compound 52, N-hydroxy-7-(2-(6-methoxypyridin-3-yl)-6-morpholino-9H-purin-9-yl)heptanamide] it is 7.00 to 8.00; for `COc1ncc(-c2nc(N3CCOCC3)c3ncn(CCCCCCC(=O)NO)c3n2)cn1` [compound 55, N-hydroxy-7-(2-(2-methoxypyrimidin-5-yl)-6-morpholino-9H-purin-9-yl)heptanamide] it is 7.00 to 8.00.
On to `O=C(CCCCCCn1ccc2c(N3CCOCC3)nc(-c3cccc(O)c3)nc21)NO` [compound 79, N-hydroxy-7-(2-(3-hydroxyphenyl)-4-morpholino-7H-pyrrolo[2,3-d]pyrimidin-7-yl)heptanamide], for which the pIC50 at HDAC6 is over 8.00.
As for `CC(C)n1c(NCc2ccc(C(=O)NO)cc2)nc2c(-c3cnc(N)nc3)nc(N3CCOCC3)nc21` [compound 80, 4-(((6-(2-aminopyrimidin-5-yl)-9-isopropyl-2-morpholino-9H-purin-8-yl)amino)methyl)-N-hydroxybenzamide], the pIC50 at HDAC1 was 6.00 to 7.00.
Regarding `CC(C)n1cnc2c(N3CCOCC3)nc(-c3cccc(OCCCC(=O)NO)c3)nc21` [compound 83, N-hydroxy-4-(3-(9-isopropyl-6-morpholino-9H-purin-2-yl)phenoxy)butanamide], the pIC50 in the test with COLO 205 was 5.00 to 5.70; on HDAC1 it was 6.00 to 7.00; in test [1], 6.00 to 7.00; in the test on K-562, 5.00 to 5.70; in the test on MOLT-4, 5.70 to 6.30.
For `CC(C)n1cnc2c(N3CCOCC3)nc(-c3cccc(OCCCCCCC(=O)NO)c3)nc21` [compound 84, N-hydroxy-7-(3-(9-isopropyl-6-morpholino-9H-purin-2-yl)phenoxy)heptanamide], the pIC50 was under 5.00 in the test with COLO 205; 6.00 to 7.00 on HDAC1; 7.00 to 8.00 in [1]; 5.00 to 5.70 in the test on K-562; 5.00 to 5.70 in the test on MOLT-4.
Regarding `CC(C)n1cnc2c(N3CCOCC3)nc(-c3cccc(NC(=O)CCCCCCC(=O)NO)c3)nc21` [compound 85, N^1-hydroxy-N^8-(3-(9-isopropyl-6-morpholino-9H-purin-2-yl)phenyl)octanediamide], the pIC50 is 5.70 to 6.30 with COLO 205; 5.70 to 6.30 in the test on MV-4-11; 7.00 to 8.00 on HDAC1; over 8.00 in [1]; 5.70 to 6.30 in the test on MCF7; 5.00 to 5.70 in the test with PC-3. Also, the negative-log IC50 (pIC50) in the test on K-562 is 5.70 to 6.30; in the test on MOLT-4, over 6.30.
Turning to `CC(C)n1c(N2CCC(C(=O)NO)CC2)nc2c(N3CCOCC3)nc(-c3cnc(N)nc3)nc21` [compound 86, 1-(2-(2-aminopyrimidin-5-yl)-9-isopropyl-6-morpholino-9H-purin-8-yl)-N-hydroxypiperidine-4-carboxamide], the pIC50 on PI3Kα is 7.00 to 8.00; in the test with COLO 205, 5.00 to 5.70; at HDAC1, 5.00 to 6.00; in [1], 5.00 to 6.00; in the test with K-562, 5.00 to 5.70; in the test on MOLT-4 it was 5.70 to 6.30.
As to `CCn1c(CN2CCC(C(=O)NO)CC2)nc2c(N3CCOCC3)nc(-c3cnc(N)nc3)nc21` [compound 88, 1-((2-(2-aminopyrimidin-5-yl)-9-ethyl-6-morpholino-9H-purin-8-yl)methyl)-N-hydroxypiperidine-4-carboxamide], the pIC50 was under 5.00 with COLO 205, 5.00 to 6.00 at HDAC1, under 5.00 with K-562 and 5.00 to 5.70 in the test with MOLT-4.
Turning to `O=C(CCCCCCn1cnc2c(N3CCC(CO)CC3)nc(-c3cccc(CO)c3)nc21)NO` [compound 103, N-hydroxy-7-(2-(3-(hydroxymethyl)phenyl)-6-(4-(hydroxymethyl)piperidin-1-yl)-9H-purin-9-yl)heptanamide], the pIC50 in the test with MV-4-11 was over 6.30; in test [1], over 8.00; in the test on MCF7 it was 5.70 to 6.30; in the test with MOLT-4 it was over 6.30.
In the case of `O=C(CCCCCCn1cnc2c(N3CCC(O)CC3)nc(-c3cccc(CO)c3)nc21)NO` [compound 105, N-hydroxy-7-(2-(3-(hydroxymethyl)phenyl)-6-(4-hydroxypiperidin-l-yl)-9H-purin-9-yl)heptanamide], the pIC50 is 5.70 to 6.30 with HCT 116; over 6.30 in the test on MV-4-11; over 8.00 in [1]; 5.70 to 6.30 with MCF7; over 6.30 in the test on MOLT-4.

For the origin of these results see patent US9957270B2, “Fused pyrimidine-based hydroxamate derivatives” (Agency for Science, Technology and Research, priority 2014, dated 2018).
